The values that follow come from US8551937B2, “Peptide having an extending action for half-life of object peptide in plasma” (priority 2008, dated 2013).

As usually defined, the half-life is how long it takes for the measured level to halve.

The nature of series [1]: Comparison of half-life in plasma of native CNP-22, native CNP-53 and chimeric CNP (Example 12). The note with it: male, SD, rat, in vivo, iv, 20 nmol/kg, T½ Mean Value, intravenous, male rats, N = 3. Here is the method: Changes in CNP immunoreactivity concentration in plasma when the native CNP-22 shown by SEQ ID No: 101 was administered either solely or jointly with neutral endo-peptidase (NEP) inhibitor and compared with changes in CNP immunoreactivity concentration in plasma when native CNP-53 (SEQ ID No: 159) and the chimeric CNP (D) (structure mentioned already) were intravenously administered.
The experiment was conducted using rats where polyethylene tube (PE-50, manufactured by Clay Adams) was previously inserted into thigh artery under the anesthetized condition with Nembutal. In the group where the native CNP-22 was administered either solely or jointly with an NEP inhibitor, the polyethylene tube (PE-10, manufactured by Clay Adams) was also inserted into the thigh vein. As to a test system, male SD rats (Nippon Charles River) of 7 weeks age were used where one group comprised three rats. As to the NEP inhibitor, DL-Thiorphan (manufactured by Sigma) was used and, during the period from 10 minutes before the initiation of administration of the native CNP-22 until 60 minutes after the initiation of the administration where collection of the blood finished, 5% mannitol (100 μL/min/body) or NEP inhibitor (30 μg/100 μL/min/body) was subjected to a constant-speed intravenous administration for 70 minutes using an Infusion Pump (CFV 2100, manufactured by Nippon Koden K. K.). Native CNP-22, native CNP-53 or chimeric CNP (D) was administered into tail vein in a dose of 20 nmol/kg each and blood over the time from before administration and 60 minutes after administration was collected from a polyethylene tube inserted into the thigh artery. To the collected blood were added EDTA (Dojin Laboratories) and aprotinin (manufactured by Bayer) as a stabilizer and an anti-coagulant, respectively and the plasma was separated by means of centrifugal separation. CNP immunoreactivity concentration in the plasma was measured by a competitive radioimmunoassay (RIA). At that time, a rabbit polyclonal antibody (#2) which specifically recognizes a ring part structure which is the common structure for native CNP-22 and native CNP-53 was used as an antibody while, as a labeling compound, ^125I-[Tyr^0] CNP-22 was used.

For series [2], the target named is T1, human type recombinant neutral endopeptidase (hNEP) (Homo sapiens, UniProt P08473).
T1 construct: purchased R&D Systems, Inc., U.S.A
Briefly: Resistance to peptidase: stability to hNEP (HPLC residual rate). Type of series: in vitro ADME. The note with it: hNEP, 37° C., 1 hour, 0.5 μg/mL, 20 mM MES pH 6.5, mean of N = 2. Here is the method:
The experiment was conducted in N=2 for each sample. Native CNP-22, chimeric CNP (A, B) (structure mentioned already; final concentration: 0.5 μg/mL) and 100 μL of reaction solution (medium: 20 mM MES, pH 6.5) of human type recombinant neutral endopeptidase (hNEP, manufactured by R&D Systems, Inc., U.S.A.) were prepared. […] Distilled water (100 μL) was added to the sample after boiling followed by well mixing and 50 μL thereof was analyzed in a water-acetonitrile system using a high-performance liquid chromatography system LC-10A (manufactured by Shimadzu). The analytical data were analyzed by a Chromato-Pack (CRA-10A, manufactured by Shimadzu) and area of the peak zone of unchanged substance was calculated. The area of average zone of unchanged substance when made to react at 37° C. was divided by the area of average zone of the boiled sample to calculate the residual rate of the unchanged substance after 1 hour.

A short description of series [3]: CNP immunoreactivity concentration in plasma, half-life after intravenous administration (Example 7). The settings on record: male, SD, rat, in vivo, 10 nmol/kg. Here is the method: The experiment was carried out using rats into which polyethylene tube (PE-50 manufactured by Clay Adams) was previously inserted into thigh artery under an anesthetized condition with Nembutal. As to a test system, male SD strain rats (Nippon Charles River) of 7 weeks age were used where one group comprised 3 rats. Native CNP-22 or chimeric CNP in a dose of 10 nmol/kg was administered into tail vein of the rat and the blood before the administration and until 60 minutes after the administration was collected by a polyethylene tube inserted into the thigh artery. To the collected blood were added EDTA (manufactured by Dojin Laboratories) and aprotinin (manufactured by Bayer) as a stabilizer and an anti-coagulant, respectively and the plasma was separated therefrom by centrifugal separation. CNP immunoreactivity concentration in plasma was measured by a competitive radioimmunoassay (RIA). At that time, a rabbit polyclonal antibody (#2) which specifically recognizes the ring partial structure of the native CNP-22 was used as an antibody and, as a labeled compound, ^125I-[Tyr^0] CNP was used.

The nature of series [4]: Antigenicity by indirect ELISA of serum after repeated administration. Format: in vivo. The settings on record: 0.25 mg/kg subcutaneous twice daily for 29 days, mouse serum. The procedure: In order to investigate whether an antibody to native CNP-22 or chimeric CNP (B) was produced using serum collected from the mice after completion of repeated administration for four weeks in Example 4, antigenicity of each of them was evaluated by means of an indirect ELISA. A peptide solution (100 μL) adjusted to 1.0 ng/μL using 50 mM of […] at pH 8.5 was added to a 96-well plate (manufactured by Nalge Nunc International; Denmark) treated with Maxisoap and subjected to a coating operation overnight at 4° C. A blocking was carried out at room temperature for 1 hour using a 2.0% Block Ace (manufactured by Snow Brand Milk). […] After washing the wells, an anti-mouse IgG HRPAb (manufactured by Zymed Laboratories, U.S.A.) was added thereto. The antigen-antibody reaction was conducted for 1 hour at room temperature, then the wells were washed and a substrate ABTS (manufactured by KPL, U.S.A.) was added thereto.

T1 sequence (P08473 whole entry): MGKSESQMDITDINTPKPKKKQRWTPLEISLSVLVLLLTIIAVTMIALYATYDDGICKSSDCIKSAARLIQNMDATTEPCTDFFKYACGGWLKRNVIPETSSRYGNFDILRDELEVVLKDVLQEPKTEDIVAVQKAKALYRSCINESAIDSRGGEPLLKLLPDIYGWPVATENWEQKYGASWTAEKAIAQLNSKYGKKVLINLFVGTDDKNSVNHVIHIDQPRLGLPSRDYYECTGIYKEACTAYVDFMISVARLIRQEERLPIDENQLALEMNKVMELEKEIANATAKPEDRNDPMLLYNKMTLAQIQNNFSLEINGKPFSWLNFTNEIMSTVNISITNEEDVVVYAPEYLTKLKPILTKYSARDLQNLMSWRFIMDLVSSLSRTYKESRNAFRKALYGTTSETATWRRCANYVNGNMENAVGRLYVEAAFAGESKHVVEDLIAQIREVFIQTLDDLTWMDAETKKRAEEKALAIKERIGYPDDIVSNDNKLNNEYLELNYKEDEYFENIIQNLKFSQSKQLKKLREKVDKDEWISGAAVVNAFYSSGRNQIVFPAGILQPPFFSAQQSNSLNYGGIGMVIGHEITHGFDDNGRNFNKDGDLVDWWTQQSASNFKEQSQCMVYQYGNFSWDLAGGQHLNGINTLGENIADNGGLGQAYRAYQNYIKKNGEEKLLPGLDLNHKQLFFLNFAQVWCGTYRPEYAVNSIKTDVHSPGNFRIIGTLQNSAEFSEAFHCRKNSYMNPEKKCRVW

As to `CC[C@H](C)[C@@H]1NC(=O)[C@H](CCCNC(=N)N)NC(=O)[C@H](CC(=O)O)NC(=O)[C@H](CC(C)C)NC(=O)[C@H](CCCCN)NC(=O)[C@H](CC(C)C)NC(=O)CNC(=O)[C@H](Cc2ccccc2)NC(=O)[C@@H](NC(=O)CNC(=O)[C@H](CCCCN)NC(=O)[C@H](CO)NC(=O)[C@H](CC(C)C)NC(=O)CN)CSSC[C@@H](C(=O)O)NC(=O)CNC(=O)[C@H](CC(C)C)NC(=O)CNC(=O)[C@H](CO)NC(=O)[C@H](CCSC)NC(=O)[C@H](CO)NC(=O)CNC1=O` [Native CNP-22], the half-life stood at 1.11 min in series [1] (Joint Use with NEP Inhibitor: no), 16.2 min in series [1] (Joint Use with NEP Inhibitor: yes (DL-Thiorphan)) and 4.34 min in series [3]. For the same compound, in series [2], the “Residual Rate” value was determined as 16.7%. In addition, the antibody value result in series [4] is recorded as “no rise”.
